Measurements from PubChem BioAssay (NCI).
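Cells were grown in 96-well plates and exposed to each compound for 48 hours at five concentrations; endpoints were interpolated linearly between bracketing concentrations, or set to the highest concentration if not reached. At the GI50, growth is halved. TGI: total growth inhibition.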

Key:
Assay in all cases: NCI anticancer screen, dose series, 48 h
[1] = system: 786-0 renal
[2] = system: A498 renal
[3] = system: A549 NSCLC
[4] = system: ACHN renal
[5] = system: BT-549 breast
[6] = system: CAKI-1 renal
[7] = system: CCRF-CEM leukemia
[8] = system: COLO 205 colon
[9] = system: DU-145 prostate
[10] = system: EKVX NSCLC
[11] = system: HCC-2998 colon
[12] = system: HCT-116 colon
[13] = system: HCT-15 colon
[14] = system: HL-60(TB) leukemia
[15] = system: HOP-62 NSCLC
[16] = system: HOP-92 NSCLC
[17] = system: HS 578T breast
[18] = system: HT29 colon
[19] = system: IGROV1 ovarian
[20] = system: K-562 leukemia
[21] = system: KM12 colon
[22] = system: LOX IMVI melanoma
[23] = system: M14 melanoma
[24] = system: MALME-3M melanoma
[25] = system: MCF7 breast
[26] = system: MDA-MB-231 breast
[27] = system: MDA-MB-435
[28] = system: MDA-MB-468 breast
[29] = system: MOLT-4 leukemia
[30] = system: NCI-H226 lung
[31] = system: NCI-H23 lung
[32] = system: NCI-H460 lung
[33] = system: NCI-H522 lung
[34] = system: NCI/ADR-RES ovarian
[35] = system: OVCAR-3 ovarian
[36] = system: OVCAR-4 ovarian
[37] = system: OVCAR-5 ovarian
[38] = system: OVCAR-8 ovarian
[39] = system: PC-3 prostate
[40] = system: RPMI-8226 leukemia
[41] = system: RXF 393 renal
[42] = system: SF-268 CNS
[43] = system: SF-295 CNS
[44] = system: SF-539 CNS
[45] = system: SK-MEL-2 melanoma
[46] = system: SK-MEL-28 melanoma
[47] = system: SK-MEL-5 melanoma
[48] = system: SK-OV-3 ovarian
[49] = system: SN12C renal
[50] = system: SNB-19 CNS
[51] = system: SNB-75 CNS
[52] = system: SR leukemia
[53] = system: SW-620 colon
[54] = system: T-47D breast
[55] = system: TK-10 renal
[56] = system: U251 CNS
[57] = system: UACC-62 melanoma
[58] = system: UO-31 renal

SMILES: O=C(Nc1cccc(-n2cnc3cc(-c4ccc(O)cc4)ccc32)c1)C1CC1
- GI50 [1]: 683 nM
- TGI [1]: 45600 nM
- GI50 [2]: 19500 nM
- TGI [2]: 84900 nM
- GI50 [3]: 895 nM
- TGI [3]: > 100000 nM
- GI50 [4]: 593 nM
- TGI [4]: 35200 nM
- GI50 [5]: 396 nM
- TGI [5]: 11800 nM
- GI50 [6]: 503 nM
- TGI [6]: 66500 nM
- GI50 [7]: 389 nM
- TGI [7]: 10300 nM
- GI50 [8]: 489 nM
- TGI [8]: 18600 nM
- GI50 [9]: 1460 nM
- TGI [9]: 28400 nM
- GI50 [10]: 782 nM
- TGI [10]: 36100 nM
- GI50 [11]: 1180 nM
- TGI [11]: 24400 nM
- GI50 [12]: 512 nM
- TGI [12]: 17700 nM
- GI50 [13]: 308 nM
- TGI [13]: 15700 nM
- GI50 [14]: 237 nM
- TGI [14]: 645 nM
- GI50 [15]: 625 nM
- TGI [15]: > 69200 nM
- GI50 [16]: 14600 nM
- TGI [16]: 52100 nM
- GI50 [17]: 388 nM
- TGI [17]: > 45400 nM
- GI50 [18]: 340 nM
- TGI [18]: > 40800 nM
- GI50 [19]: 591 nM
- TGI [19]: 26900 nM
- GI50 [20]: 284 nM
- TGI [20]: > 36600 nM
- GI50 [21]: 351 nM
- TGI [21]: 13900 nM
- GI50 [22]: 478 nM
- TGI [22]: 22100 nM
- GI50 [23]: 344 nM
- TGI [23]: 28300 nM
- GI50 [24]: 555 nM
- TGI [24]: 28200 nM
- GI50 [25]: 358 nM
- TGI [25]: 20200 nM
- GI50 [26]: 700 nM
- TGI [26]: 42900 nM
- GI50 [27]: 108 nM
- TGI [27]: 441 nM
- GI50 [28]: 313 nM
- TGI [28]: 8820 nM
- GI50 [29]: 435 nM
- TGI [29]: 6190 nM
- GI50 [30]: 2880 nM
- TGI [30]: 48100 nM
- GI50 [31]: 1120 nM
- TGI [31]: 19800 nM
- GI50 [32]: 469 nM
- TGI [32]: > 43700 nM
- GI50 [33]: 225 nM
- TGI [33]: 1140 nM
- GI50 [34]: 539 nM
- TGI [34]: 5880 nM
- GI50 [35]: 320 nM
- TGI [35]: 3760 nM
- GI50 [36]: 5940 nM
- TGI [36]: 73900 nM
- GI50 [37]: 1810 nM
- TGI [37]: 69500 nM
- GI50 [38]: 823 nM
- TGI [38]: > 58800 nM
- GI50 [39]: 546 nM
- TGI [39]: 53200 nM
- GI50 [40]: 615 nM
- TGI [40]: 13600 nM
- GI50 [41]: 411 nM
- TGI [41]: 6600 nM
- GI50 [42]: 935 nM
- TGI [42]: 71000 nM
- GI50 [43]: 372 nM
- TGI [43]: 7670 nM
- GI50 [44]: 332 nM
- TGI [44]: 2030 nM
- GI50 [45]: 417 nM
- TGI [45]: 23600 nM
- GI50 [46]: 12600 nM
- TGI [46]: 48500 nM
- GI50 [47]: 350 nM
- TGI [47]: 14800 nM
- GI50 [48]: 820 nM
- TGI [48]: 33700 nM
- GI50 [49]: 550 nM
- TGI [49]: 35600 nM
- GI50 [50]: 811 nM
- TGI [50]: 72900 nM
- GI50 [51]: 246 nM
- TGI [51]: 3420 nM
- GI50 [52]: 175 nM
- TGI [52]: 59600 nM
- GI50 [53]: 421 nM
- TGI [53]: > 91500 nM
- GI50 [54]: 521 nM
- TGI [54]: 19400 nM
- GI50 [55]: 11300 nM
- TGI [55]: 63400 nM
- GI50 [56]: 514 nM
- TGI [56]: > 100000 nM
- GI50 [57]: 354 nM
- TGI [57]: 19300 nM
- GI50 [58]: 599 nM
- TGI [58]: 19300 nM
